Measurements reported in the supplement of paper PMC11061612.

Legend:
Experiment in all cases: combination Emax (second highest fraction inhibited in the dose matrix, 72 h); higher = more inhibition; extreme values may be limits of the assay
[1] = system: GDM-1 (Acute Myeloid Leukemia)
Procedure, shortened: (§1)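 After 24 hours at 37°C and 5% CO2 in 1536-well plates, cells in DMEM/F12 or RPMI plus 10% FBS received two-drug dose matrices for 72 hours. Viability came from CellTiter-Glo 2.0 luminescence and was scaled as inhibition, anchored at 0 by vehicle wells and at 1 by blank wells. Combination Emax is taken as the second-highest inhibition in the matrix, and Bliss excess as the observed combination effect less EA + EB − EA·EB, with EA and EB the single-agent effects.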

[2] = system: TYK-nu (Ovarian Carcinoma)
Procedure, shortened: as §1

[3] = system: YT (Other Blood Carcinomas)
Procedure, shortened: as §1

[4] = system: HCC-827 (Lung Adenocarcinoma)
Procedure, shortened: as §1

[5] = system: KG-1 (Acute Myeloid Leukemia)
Procedure, shortened: as §1

[6] = system: MCF7 (Breast Carcinoma)
Procedure, shortened: as §1

[7] = system: SW48 (Colorectal Carcinoma)
Procedure, shortened: as §1

[8] = system: SKN-3 (Head and Neck Carcinoma)
Procedure, shortened: as §1

[9] = system: SNU-61 (Colorectal Carcinoma)
Procedure, shortened: as §1

[10] = system: HuO9 (Osteosarcoma)
Procedure, shortened: as §1

[11] = system: SNG-M (Endometrial Carcinoma)
Procedure, shortened: as §1

[12] = system: HCC1143 (Breast Carcinoma)
Procedure, shortened: as §1

[13] = system: Saos-2 (Osteosarcoma)
Procedure, shortened: as §1

[14] = system: SK-LMS-1 (Other Solid Carcinomas)
Procedure, shortened: as §1

[15] = system: CS1 (Chondrosarcoma)
Procedure, shortened: as §1

[16] = system: MEG-01 (Chronic Myelogenous Leukemia)
Procedure, shortened: as §1

[17] = system: JHH-6 (Hepatocellular Carcinoma)
Procedure, shortened: as §1

[18] = system: MES-SA (Other Solid Carcinomas)
Procedure, shortened: as §1

[19] = system: A172 (Glioblastoma)
Procedure, shortened: as §1

| SMILES | combination Emax [1] | combination Emax [2] | combination Emax [3] | combination Emax [4] | combination Emax [5] | combination Emax [6] | combination Emax [7] | combination Emax [8] | combination Emax [9] | combination Emax [10] | combination Emax [11] | combination Emax [12] | combination Emax [13] | combination Emax [14] | combination Emax [15] | combination Emax [16] | combination Emax [17] | combination Emax [18] | combination Emax [19] |
| --- | --- | --- | --- | --- | --- | --- | --- | --- | --- | --- | --- | --- | --- | --- | --- | --- | --- | --- | --- |
| NC1(C(=O)N[C@@H](CCO)c2ccc(Cl)cc2)CCN(c2ncnc3[nH]ccc23)CC1 [Capivasertib] + COc1nnc2ccc(N3CCC(c4ccc(OCCN5CCN(C)C(=O)[C@H]5C)cc4)CC3)nn12 [AZD5153] (first compound max 10 µM, 7x7, partner max 1 µM) | 0.79 | 0.632 | 0.792 | 0.481 | 0.852 | 0.754 | 0.828 | 0.581 | 0.303 | 0.841 | 0.749 | 0.325 | 0.554 | 0.609 | 0.455 | 0.877 | 0.645 | 0.621 | 0.472 |
| NC1(C(=O)N[C@@H](CCO)c2ccc(Cl)cc2)CCN(c2ncnc3[nH]ccc23)CC1 [Capivasertib] + C[C@@H]1COCCN1C2=NC(=NC(=C2)C3(CC3)[S@](=N)(=O)C)C4=C5C=CNC5=NC=C4 [AZD6738] (first compound max 10 µM, 7x7, partner max 10 µM) | 0.734 | 0.728 | 0.838 | 0.576 | 0.739 | 0.731 | 0.759 | 0.566 | 0.309 | 0.79 | 0.888 | 0.725 | 0.586 | 0.566 | 0.621 | 0.945 | 0.506 | 0.721 | 0.779 |
| NC1(C(=O)N[C@@H](CCO)c2ccc(Cl)cc2)CCN(c2ncnc3[nH]ccc23)CC1 [Capivasertib] + Cn1cnc2c(F)c(Nc3ccc(Br)cc3Cl)c(C(=O)NOCCO)cc21 [Selumetinib] (first compound max 10 µM, 7x7, partner max 10 µM) | 0.73 | 0.667 | 0.446 | 0.6 | 0.37 | 0.519 | 0.556 | 0.426 | 0.46 | 0.509 | 0.648 | 0.317 | 0.46 | 0.668 | 0.502 | 0.825 | 0.458 | 0.496 | 0.48 |
| Cc1nc(Nc2ncc(C(=O)Nc3c(C)cccc3Cl)s2)cc(N2CCN(CCO)CC2)n1 [Dasatinib] + CC(=O)Nc1cccc(-n2c(=O)n(C3CC3)c(=O)c3c(Nc4ccc(I)cc4F)n(C)c(=O)c(C)c32)c1 [Trametinib] (first compound max 2 µM, 7x7, partner max 1 µM) | 0.76 | 0.71 | 0.318 | 0.947 | 0.419 | 0.112 | 0.959 | 0.575 | 0.626 | 0.541 | 0.798 | 0.657 | 0.335 | 0.645 | 0.568 | 1 | 0.611 | 0.221 | 0.512 |
| COc1cc2ncnc(Nc3ccc(F)c(Cl)c3)c2cc1OCCCN1CCOCC1 [Gefitinib] + CC(C)n1c(=O)n(C)c2cnc3cc(F)c(-c4ccc(OCCCN5CCCCC5)nc4)cc3c21 [AZD1390] (first compound max 10 µM, 7x7, partner max 0.3 µM) | 0.131 | 0.197 | 0.185 | 0.766 | 0.182 | 0.0973 | 0.399 | 0.236 | 0.18 | 0.12 | 0.229 | 0.253 | 0.184 | 0.12 | 0.201 | 0.11 | 0.144 | 0.0714 | 0.169 |
| CS(=O)(=O)CCNCc1ccc(-c2ccc3ncnc(Nc4ccc(OCc5cccc(F)c5)c(Cl)c4)c3c2)o1 [Lapatinib] + C[C@@H](Oc1cc(-c2cnn(C3CCNCC3)c2)cnc1N)c1c(Cl)ccc(F)c1Cl [Crizotinib] (first compound max 10 µM, 7x7, partner max 10 µM) | 0.913 | 0.719 | 0.939 | 0.896 | 0.49 | 0.981 | 0.911 | 0.738 | 0.697 | 0.982 | 0.955 | 0.875 | 0.889 | 0.864 | 0.797 | 0.992 | 0.683 | 0.813 | 0.941 |
| CC(=O)c1c(C)c2cnc(Nc3ccc(N4CCNCC4)cn3)nc2n(C2CCCC2)c1=O [Palbociclib] + CC1(C)CCC(CN2CCN(c3ccc(C(=O)NS(=O)(=O)c4ccc(NCC5CCOCC5)c([N+](=O)[O-])c4)c(Oc4cnc5[nH]ccc5c4)c3)CC2)=C(c2ccc(Cl)cc2)C1 [Venetoclax] (first compound max 10 µM, 7x7, partner max 1 µM) | 0.892 | 0.401 | 0.504 | 0.168 | 0.85 | 0.339 | 0.313 | 0 | 0.152 | 0.406 | 0.424 | 0.129 | 0.197 | 0.147 | 0.354 | 0.484 | 0.227 | 0.361 | 0.457 |
| CC(=O)c1c(C)c2cnc(Nc3ccc(N4CCNCC4)cn3)nc2n(C2CCCC2)c1=O [Palbociclib] + Cc1c2c(nn1C)CSCc1cc(n(C)n1)CSc1cc(c3ccccc3c1)OCCCc1c(C(=O)O)n(C)c3c-2c(Cl)ccc13 [AZD5991] (first compound max 10 µM, 7x7, partner max 1 µM) | 0.824 | 0.405 | 1 | 0.197 | 0.894 | 0.574 | 0.409 | 0.244 | 0.171 | 0.803 | 0.485 | 0.287 | 0.332 | 0.282 | 0.304 | 0.668 | 0.338 | 0.513 | 0.614 |
| CC(=O)c1c(C)c2cnc(Nc3ccc(N4CCNCC4)cn3)nc2n(C2CCCC2)c1=O [Palbociclib] + Cn1cnc2c(F)c(Nc3ccc(Br)cc3Cl)c(C(=O)NOCCO)cc21 [Selumetinib] (first compound max 10 µM, 7x7, partner max 10 µM) | 0.555 | 0.584 | 0.606 | 0.22 | 0.481 | 0.366 | 0.626 | 0.349 | 0.447 | 0.419 | 0.296 | 0.295 | 0.232 | 0.437 | 0.408 | 0.855 | 0.443 | 0.38 | 0.425 |
| C[C@@H](c1ccc2nccn2c1)n1nnc2ncc(-c3cnn(C)c3)nc21 [Savolitinib] + CC1(C)CCC(CN2CCN(c3ccc(C(=O)NS(=O)(=O)c4ccc(NCC5CCOCC5)c([N+](=O)[O-])c4)c(Oc4cnc5[nH]ccc5c4)c3)CC2)=C(c2ccc(Cl)cc2)C1 [Venetoclax] (first compound max 1 µM, 7x7, partner max 1 µM) | 0.515 | 0.168 | 0.336 | 0.266 | 0.38 | 0.129 | 0.177 | 0.148 | 0.143 | 0.197 | 0.246 | 0.29 | 0.121 | 0.223 | 0.343 | 0.0651 | 0.0411 | 0.0576 | 0.145 |
| C[C@@H](c1ccc2nccn2c1)n1nnc2ncc(-c3cnn(C)c3)nc21 [Savolitinib] + Cc1c2c(nn1C)CSCc1cc(n(C)n1)CSc1cc(c3ccccc3c1)OCCCc1c(C(=O)O)n(C)c3c-2c(Cl)ccc13 [AZD5991] (first compound max 1 µM, 7x7, partner max 1 µM) | 0.208 | 0.295 | 1 | 0.283 | 0.711 | 0.49 | 0.24 | 0.216 | 0.151 | 0.739 | 0.32 | 0.402 | 0.229 | 0.223 | 0.266 | 0.148 | 0.103 | 0.191 | 0.112 |
| Cn1cnc2c(F)c(Nc3ccc(Br)cc3Cl)c(C(=O)NOCCO)cc21 [Selumetinib] + C=CCn1c(=O)c2cnc(Nc3ccc(N4CCN(C)CC4)cc3)nc2n1-c1cccc(C(C)(C)O)n1 [AZD1775] (first compound max 10 µM, partner max 1 µM) | 0.898 | 0.715 | 0.945 | 0.377 | 0.587 | 0.247 | 0.433 | 0.477 | 0.527 | 0.747 | 0.555 | 0.528 | 0.551 | 0.599 | 0.386 | 0.974 | 0.297 | 0.731 | 0.365 |
| Cn1cnc2c(F)c(Nc3ccc(Br)cc3Cl)c(C(=O)NOCCO)cc21 [Selumetinib] + CC(C)n1c(=O)n(C)c2cnc3cc(F)c(-c4ccc(OCCCN5CCCCC5)nc4)cc3c21 [AZD1390] (first compound max 10 µM, 7x7, partner max 0.3 µM) | 0.165 | 0.548 | 0.16 | 0.195 | 0.307 | 0.084 | 0.38 | 0.228 | 0.389 | 0.626 | 0.187 | 0.297 | 0.153 | 0.264 | 0.256 | 0.671 | 0.168 | 0.115 | 0.257 |
